The assay addresses hADORA1/CHO (hA1 expressing) cells (Homo sapiens (Human), UniProt P30542). In words: FLIPR calcium inhibition assay in hADORA1/CHO (hA1 expressing) cells, 10 M adenosine. Type of assay: cell-based. Conditions: read-out: cAMP & FLIPR IC50 (nM) hA1. The method, then: hADORA1/CHO (hA1 expressing) cells (Genscript) were plated at 1×10^4 cells/well into 384-well polystyrene plates one day before starting the experiment. On the day of experiment, the supernatant was discard and replaced with 40 μL of dye (FLIPR calcium 5 Assay Kit) per well and the plates were incubated for 60 mins at 37° C. plus 5% CO2. Then testing compounds were added at different concentrations for FLIPR™ inhibition assay. After a 400 s incubation with compound, […] adenosine was added into the cells, and the signal was captured by FLIPR.

Chain of hADORA1/CHO (hA1 expressing) cells (P30542 whole entry): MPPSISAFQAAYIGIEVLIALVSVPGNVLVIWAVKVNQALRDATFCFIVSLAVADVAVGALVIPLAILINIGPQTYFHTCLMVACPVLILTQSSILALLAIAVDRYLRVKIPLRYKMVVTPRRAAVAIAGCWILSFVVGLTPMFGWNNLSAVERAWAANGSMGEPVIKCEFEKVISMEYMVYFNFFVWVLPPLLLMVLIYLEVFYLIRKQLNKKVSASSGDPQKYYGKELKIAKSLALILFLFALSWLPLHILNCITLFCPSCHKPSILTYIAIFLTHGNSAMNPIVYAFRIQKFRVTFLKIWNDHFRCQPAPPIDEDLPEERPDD

The term IC50 denotes the concentration needed to halve the response being measured. As to `Cc1cnc2ccc(-c3nc(C(=O)NCC4CCCCN4C)c(N)nc3-c3ncco3)cn12` (single isomer, unassigned; isomer 2) [Example 125, 3-amino-6-(3-methylimidazo[1,2-a]pyridin-6-yl)-N-((1-methylpiperidin-2-yl)methyl)-5-(oxazol-2-yl)pyrazine-2-carboxamide (isomer 2)], the IC50 came to 10000 nM.

The values above are taken from patent publication US11571420B2 (priority 2018, dated 2023).
